In this test the test system is Plasmodium berghei. Kind of test: Luciferase/luciferin-expressing antifolate-resistant parasites were used to infect a culture of HepG2 cells that were pre-incubated with compounds. Infected hepatocytes emit light due to the luciferase reaction. Assay results are presented as the percent inhibition of light emission compared to control. […]. In kind it is functional. The note with it: sporozoite; for IC90: read-out: LUCIFERASE INFECTION ASSAY - IC90.

Setting [1] is: read-out: LUCIFERASE INFECTION ASSAY - IC50.

This is an account of results in ChEMBL document CHEMBL4483862, “Open-source discovery of chemical leads for next-generation chemoprotective antimalarials” (2018).

The IC50 is the point on the concentration scale where inhibition reaches its midpoint. The term IC90 denotes the concentration needed for an effect of 90%.

For the molecule `CCc1cccc2c(C3=CCN(c4ccc([N+](=O)[O-])cn4)CC3)c[nH]c12`, the IC90 is more than 10 µM. The concentration for half-maximal inhibition (IC50) (HEPG2TOX_HILL_SLOPE 2.16, 2.30, HEPG2TOX_R_SQUARED 0.931, 0.732, PBLUC_HILL_SLOPE 2.67, 4.10, PBLUC_R_SQUARED 0.259, 0.404, read-out: LUCIFERASE INFECTION ASSAY - IC50) turned out to be 5.92 µM.

Take `O=C(CN1CCN(c2cccc(Cl)c2)CC1)Nc1nccs1`: the IC90 was more than 9.8 µM. In addition, the IC50 under setting [1] is more than 9.8 µM.

On to `OC1(c2ccccc2)c2ccccc2-c2ccccc21`, for which the IC90 was more than 12.8 µM. Also, the IC50 under setting [1] was 7.15 µM.

Consider `CN(CC(=O)Nc1ccc(Cl)c(S(=O)(=O)N2CCOCC2)c1)C(=O)C1CCCO1` (stereo unspecified), for which the IC90 was more than 10 µM. In addition, the IC50 under setting [1] is more than 10 µM.

Regarding `CN1CCN(c2ccc(CNc3ccc4ncc(-c5ccc(OC(F)(F)F)cc5)n4n3)cc2)CC1`, the 90% effect concentration (IC90) was determined as 6.12 µM. Besides, the 50% inhibitory concentration (IC50) (HEPG2TOX_HILL_SLOPE 14.3, HEPG2TOX_R_SQUARED 0.469, PBLUC_HILL_SLOPE 4.14, PBLUC_R_SQUARED 0.775, read-out: LUCIFERASE INFECTION ASSAY - IC50) worked out at 3.6 µM.

Turning to `COc1ccc(C)cc1C(C)NC(=O)c1cc2ccsc2[nH]1` (stereo unspecified), the IC90 was more than 10 µM. For the same molecule, the concentration for half-maximal inhibition (IC50) under setting [1] was more than 10 µM.

With `N#CC(C#N)=NNc1cccc(Cl)c1` [CARBONYL CYANIDE M-CHLOROPHENYLHYDRAZONE], the IC90 is 13.9 µM. The IC50 under setting [1] was 3.84 µM.

On to `COCCN1C(=O)N(Cc2cccc(OC)c2)C(=O)C12CCN(C1CCc3ccccc3C1)CC2` (stereo unspecified), for which the IC90 was more than 6.91 µM. Further, where the note is “PBLUC_HILL_SLOPE 3.06, PBLUC_R_SQUARED 0.614, read-out: LUCIFERASE INFECTION ASSAY - IC50”, the concentration for half-maximal inhibition (IC50) was 4.45 µM.

Take `CCCCNC(=O)c1c(NC(=O)c2cc(F)ccc2F)nc2ccccn12`: the 90% effect concentration (IC90) turned out to be 3.57 µM. For the same molecule, the half-inhibitory concentration (IC50) (HEPG2TOX_HILL_SLOPE 2.83, HEPG2TOX_R_SQUARED 0.745, PBLUC_HILL_SLOPE 13.2, PBLUC_R_SQUARED 0.5, read-out: LUCIFERASE INFECTION ASSAY - IC50) amounted to 3.03 µM.

Consider `N#C/C(=N\Nc1ccc(Cl)cc1Cl)C(=O)c1ccc(Cl)cc1`, for which the IC90 was 1.16 µM. For the same molecule, the IC50 (HEPG2TOX_HILL_SLOPE 1.3, HEPG2TOX_R_SQUARED 0.915, PBLUC_HILL_SLOPE 13.3, PBLUC_R_SQUARED 0.668, read-out: LUCIFERASE INFECTION ASSAY - IC50) is 0.987 µM.

In the case of `Nc1n[nH]c(Nc2cccc(Cl)c2Cl)c1C(=O)c1cccs1`, the IC90 was found to be 3.45 µM. The IC50 (PBLUC_HILL_SLOPE 0.162, PBLUC_R_SQUARED 0.284, read-out: LUCIFERASE INFECTION ASSAY - IC50) is less than 0.0128 µM.

Turning to `CCCn1c(C)cc(C(=O)COC(=O)C2=COCCO2)c1C`, the IC90 is more than 10 µM. Moreover, the IC50 (FFLUC_HILL_SLOPE 0.919, FFLUC_R_SQUARED 0.757, PBLUC_HILL_SLOPE 0.614, PBLUC_R_SQUARED 0.12, read-out: LUCIFERASE INFECTION ASSAY - IC50) was 0.839 µM.

Regarding `O=C(CCc1ncc(-c2ccccc2)o1)Nc1ncccc1O`, the 90% effect concentration (IC90) was more than 10 µM. For the same molecule, the IC50 under setting [1] is more than 10 µM.

As for `N#Cc1ccc(C#CCOC(=O)c2ccc(Cl)cc2)cc1`, the IC90 was more than 11.2 µM. The IC50 (HEPG2TOX_HILL_SLOPE 9.79, HEPG2TOX_R_SQUARED 0.928, PBLUC_HILL_SLOPE 1.7, PBLUC_R_SQUARED 0.764, read-out: LUCIFERASE INFECTION ASSAY - IC50) came to 3.56 µM.

Turning to `COc1ccccc1NC(=S)NC(c1ccccc1)c1ccccc1`, the IC90 is more than 9.47 µM. Under setting [1], the IC50 is more than 9.47 µM.

Turning to `c1cncc(CCNc2nccn3c(-c4ccc5ccccc5c4)cnc23)c1`, the 90% effect concentration (IC90) turned out to be 5.14 µM. For the same molecule, the IC50 (HEPG2TOX_HILL_SLOPE 2.6, HEPG2TOX_R_SQUARED 0.953, PBLUC_HILL_SLOPE 75.6, PBLUC_R_SQUARED 0.403, read-out: LUCIFERASE INFECTION ASSAY - IC50) was 4.99 µM.

For the molecule `CCC(C)NC(=O)c1c(NC(=O)c2ccc(C)cc2)nc2ccc(C)cn12` (stereo unspecified), the IC90 is 7.69 µM. For the setting “PBLUC_HILL_SLOPE 5.31, PBLUC_R_SQUARED 0.131, read-out: LUCIFERASE INFECTION ASSAY - IC50”, the IC50 amounted to 5.08 µM.

Turning to `Cc1ccc2nc(NC(=O)c3ccc(Cl)cc3Cl)c(C(=O)NC3CCCC3)n2c1`, the IC90 turned out to be 1.13 µM. Also, under “FFLUC_HILL_SLOPE 11.5, FFLUC_R_SQUARED 0.0941, HEPG2TOX_HILL_SLOPE 0.896, HEPG2TOX_R_SQUARED 0.951, PBLUC_HILL_SLOPE 3.11, PBLUC_R_SQUARED 0.82, read-out: LUCIFERASE INFECTION ASSAY - IC50”, the half-maximal inhibitory concentration (IC50) was 0.559 µM.

For `Cc1ccc2nc(-c3ccc(NC(=O)COC(=O)c4ccccc4C(=O)c4ccccc4)cc3)sc2c1`, the IC90 was more than 10 µM. Besides, under setting [1], the IC50 was more than 10 µM.

`CC(C)(C)c1ccc(C(=O)NCCOc2ccccc2Cl)cc1`: the IC90 stood at 0.863 µM. Under “FFLUC_HILL_SLOPE 11.3, FFLUC_R_SQUARED 0.0884, PBLUC_HILL_SLOPE 2.08, PBLUC_R_SQUARED 0.74, read-out: LUCIFERASE INFECTION ASSAY - IC50”, the IC50 stood at 0.3 µM.

Consider `O=C(Nc1ccc(Cl)cc1)Nc1nc(-c2cc(Cl)c(Cl)s2)cs1`, for which the IC90 was determined as 1.77 µM. In addition, the IC50 under setting [1] amounted to 1.13 µM.

As for `Cc1cc(-c2ccccc2)nc(SCc2ccc(C#N)cc2)n1`, the IC90 is 5.95 µM. For the same molecule, the IC50 (HEPG2TOX_HILL_SLOPE 7.96, HEPG2TOX_R_SQUARED 0.286, PBLUC_HILL_SLOPE 151, PBLUC_R_SQUARED 0.106, read-out: LUCIFERASE INFECTION ASSAY - IC50) stood at 5.87 µM.

For the molecule `CCN(CC)CCNC(=O)c1c(C)oc2c1C(=O)c1ccccc1C2=O`, the IC90 came out at 1.15 µM. The IC50 (HEPG2TOX_HILL_SLOPE 5.67, HEPG2TOX_R_SQUARED 0.985, PBLUC_HILL_SLOPE 0.945, PBLUC_R_SQUARED 0.645, read-out: LUCIFERASE INFECTION ASSAY - IC50) stood at 0.112 µM.

Turning to `CC(C)(C)c1ccc(Oc2ccc(N)cn2)cc1` [LIMANTRAFIN], the concentration for an effect of 90% (IC90) is more than 13.6 µM. Moreover, the concentration for half-maximal inhibition (IC50) (PBLUC_HILL_SLOPE 0.71, PBLUC_R_SQUARED 0.895, read-out: LUCIFERASE INFECTION ASSAY - IC50) amounted to 1.19 µM.

Consider `Cc1cc(O)cc2c1C(=O)/C(=C/c1cc(Cl)cc3c1OCOC3)O2`, for which the IC90 was more than 9.57 µM. Further, the IC50 (HEPG2TOX_HILL_SLOPE 1.65, HEPG2TOX_R_SQUARED 0.863, PBLUC_HILL_SLOPE 8.6, PBLUC_R_SQUARED 0.504, read-out: LUCIFERASE INFECTION ASSAY - IC50) was determined as 8.66 µM.

With `CCCSC(=S)c1c(C)nn(-c2ccccc2)c1O`, the IC90 was more than 11.3 µM. Also, for the setting “PBLUC_HILL_SLOPE 10.5, PBLUC_R_SQUARED 0.318, read-out: LUCIFERASE INFECTION ASSAY - IC50”, the IC50 turned out to be 10.1 µM.

For the molecule `O=C1C(Cl)=C(Nc2ccccc2)C(=O)c2ccccc21`, the concentration for an effect of 90% (IC90) is more than 11.6 µM. In addition, the IC50 (HEPG2TOX_HILL_SLOPE 3.85, HEPG2TOX_R_SQUARED 0.988, PBLUC_HILL_SLOPE 1.86, PBLUC_R_SQUARED 0.682, read-out: LUCIFERASE INFECTION ASSAY - IC50) is 3.78 µM.

For `O=C(COC(=O)c1ccccc1Nc1cccc(C(F)(F)F)c1)c1ccc(C2CCCCC2)cc1`, the IC90 is more than 10 µM. Besides, the half-inhibitory concentration (IC50) under setting [1] was more than 10 µM.
